Values of other authors, collected in US20190282591A1, “FINASTERIDE AND SILDENAFIL COMPOSITIONS AND APPLICATIONS” (BLUE GOOSE DRUGS INC., priority 2018, published 2019).

What was measured:
[1] = active metabolite accounts for about one-half
[2] = tested on: dihydrotestosterone (DHT) levels
[3] = biological target: T1, 5α-reductase type I isoenzyme (Homo sapiens, UniProt P18405); conditions: 5α-reductase type I vs type II
T1 sequence (P18405 1-259): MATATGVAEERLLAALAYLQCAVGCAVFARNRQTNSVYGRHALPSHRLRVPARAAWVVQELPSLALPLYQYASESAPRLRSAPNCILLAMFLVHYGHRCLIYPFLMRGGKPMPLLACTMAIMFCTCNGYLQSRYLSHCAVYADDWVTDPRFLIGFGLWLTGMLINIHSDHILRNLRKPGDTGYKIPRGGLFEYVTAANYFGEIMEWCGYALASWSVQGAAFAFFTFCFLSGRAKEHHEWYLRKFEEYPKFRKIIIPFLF

[4] = biological target: T2, 5β-reductase (AKR1D1) (Homo sapiens, UniProt P51857); conditions: compared with 5α-reductase type I
T2 sequence (P51857 1-326): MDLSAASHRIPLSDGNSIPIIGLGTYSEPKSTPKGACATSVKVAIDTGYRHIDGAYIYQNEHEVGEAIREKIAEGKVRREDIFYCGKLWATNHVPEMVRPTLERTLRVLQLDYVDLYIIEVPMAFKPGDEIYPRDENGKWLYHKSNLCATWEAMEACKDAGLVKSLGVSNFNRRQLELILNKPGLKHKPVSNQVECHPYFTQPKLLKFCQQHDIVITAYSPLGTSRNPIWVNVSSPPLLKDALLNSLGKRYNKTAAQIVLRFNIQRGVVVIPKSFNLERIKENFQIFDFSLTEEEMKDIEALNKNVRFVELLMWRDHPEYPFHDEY

## CCCc1nn(C)c2c(=O)[nH]c(-c3cc(S(=O)(=O)N4CCN(C)CC4)ccc3OCC)nc12.O=C(O)CC(O)(CC(=O)O)C(=O)O [Sildenafil citrate, 5-[2-ethoxy-5-(4-methylpiperazin-1-yl)sulfonylphenyl]-1-methyl-3-propyl-4H-pyrazolo[4,3-d]pyrimidin-7-one; 2-hydroxypropane-1,2,3-tricarboxylic acid]
[1]
  bioavailability after oral administration: 40%

## C[C@]12C=CC(=O)N[C@@H]1CC[C@@H]1[C@@H]2CC[C@]2(C)[C@@H](C(=O)Nc3cc(C(F)(F)F)ccc3C(F)(F)F)CC[C@@H]12 [dutasteride]
[2]; entire body
  reduction of DHT levels in the entire body: more than 99%

## CC(C)(C)NC(=O)[C@H]1CC[C@H]2[C@@H]3CC[C@H]4NC(=O)C=C[C@]4(C)[C@H]3CC[C@]12C [finasteride, (5α,17β)-N-(1,1-dimethylethyl)-3-oxo-4-azaandrost-1-ene-17-carboxamide]
[3]
  less inhibitory potency for type I as compared to type II: more than 100 fold
[4]
  affinity for 5β-reductase relative to 5α-reductase: an order of magnitude less than 5α-reductase type I
[2]; prostate, where type II isoenzyme predominates
  decrease in prostate DHT levels: 85 to 90%
[2]; serum
  decrease in serum DHT levels: 65 to 70%
